pIC50: −log10 of the molar value. Like-named read-outs stand apart in the source and are kept apart here.

Experimental findings from US9434711B2 (Janssen Pharmaceutica, NV, priority 2007, dated 2016) are described below.

This assay has as its target canine TRPM8 (Canis lupus familiaris, UniProt Q1A7N1). Briefly: In Vitro Canine TRPM8 Functional Assay (Ca2+ fluorescence, icilin activation). The class given is cell-based. The note with it: for pIC50: read-out: IC50; for inhibition at 0.2 µM: read-out: % Inh @ 0.2; for inhibition at 0.5 µM: compound at 0.5 μM, read-out: % Inh @ 0.5. The method in brief: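 Cells (HEK293, stable canine TRPM8) are seeded 24 h before assay. They are then dye-loaded with Calcium 3 at 37 °C followed by room temperature. Compound is added and monitored for 5 min, after which icilin (~80% maximal response) is added.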

[1] abbreviates: HEK293 cells stably expressing canine TRPM8, icilin activation, eight-point dose-response.
The mark [2] stands for this setting: compound at 0.2 μM, canine TRPM8, icilin activation.
Setting [3] is: 0.2 μM compound, HEK293 cells stably expressing canine TRPM8, icilin activation.
Setting [4] is: canine TRPM8, icilin activation.
[5] abbreviates: HEK293 cells stably expressing canine TRPM8, icilin activation, average of two or more determinations.

canine TRPM8, sequence (Q1A7N1 1-1104): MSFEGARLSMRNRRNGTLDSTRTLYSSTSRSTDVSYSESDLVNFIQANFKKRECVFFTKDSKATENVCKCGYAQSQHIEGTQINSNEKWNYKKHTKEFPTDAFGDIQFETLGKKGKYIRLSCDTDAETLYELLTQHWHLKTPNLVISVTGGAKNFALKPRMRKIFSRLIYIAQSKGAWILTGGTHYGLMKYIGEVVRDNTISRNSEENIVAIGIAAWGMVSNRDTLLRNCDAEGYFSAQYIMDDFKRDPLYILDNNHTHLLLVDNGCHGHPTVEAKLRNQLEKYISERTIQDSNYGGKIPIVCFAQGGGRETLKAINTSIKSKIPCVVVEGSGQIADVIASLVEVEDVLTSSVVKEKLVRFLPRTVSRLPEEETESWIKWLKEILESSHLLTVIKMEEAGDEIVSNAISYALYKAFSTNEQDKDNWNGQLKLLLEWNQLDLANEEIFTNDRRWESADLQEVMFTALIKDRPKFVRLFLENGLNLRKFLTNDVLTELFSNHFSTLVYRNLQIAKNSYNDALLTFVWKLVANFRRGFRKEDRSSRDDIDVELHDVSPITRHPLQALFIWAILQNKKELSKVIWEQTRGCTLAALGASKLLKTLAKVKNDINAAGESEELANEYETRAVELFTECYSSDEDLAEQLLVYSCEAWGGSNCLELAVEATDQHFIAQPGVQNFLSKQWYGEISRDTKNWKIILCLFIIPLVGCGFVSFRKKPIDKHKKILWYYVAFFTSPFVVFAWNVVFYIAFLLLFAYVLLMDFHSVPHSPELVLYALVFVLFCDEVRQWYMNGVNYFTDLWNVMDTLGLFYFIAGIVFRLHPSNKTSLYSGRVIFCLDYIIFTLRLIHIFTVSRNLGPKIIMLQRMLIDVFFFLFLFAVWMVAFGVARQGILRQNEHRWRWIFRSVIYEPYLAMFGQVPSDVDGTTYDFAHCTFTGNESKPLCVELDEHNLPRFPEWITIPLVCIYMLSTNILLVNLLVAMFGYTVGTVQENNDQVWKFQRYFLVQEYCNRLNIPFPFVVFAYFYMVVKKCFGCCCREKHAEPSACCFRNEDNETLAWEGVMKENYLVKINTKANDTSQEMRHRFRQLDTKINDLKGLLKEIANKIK

For orientation: pIC50 means the IC50 on a negative log10 scale, so that one unit is a factor of ten. With `COc1cc(NS(C)(=O)=O)c(Cl)cc1S(=O)(=O)N(Cc1ccc(F)c(C(F)(F)F)c1)c1sc2ccccc2c1Cl` [Compound 766, 5-Chloro-N-(3-chloro-benzo[b]thiophen-2-yl)-N-(4-fluoro-3-trifluoromethyl-benzyl)-4-methanesulfonylamino-2-methoxy-benzenesulfonamide], under setting [1], the pIC50 was 8.11. Further, under setting [2], the inhibition at 0.2 µM was 101%. For `CC(=O)c1c(N(CCCCC(F)(F)F)S(=O)(=O)c2ccc(C#N)cc2)sc2ccccc12` [Compound 773, N-(3-Acetyl-benzo[b]thiophen-2-yl)-N-(5,5,5-trifluoro-pentyl)-4-cyano-benzenesulfonamide], in that order: 7.78 and 94%. Consider `Cc1c(N(CCC2CC2)S(=O)(=O)c2ccc(-c3nnn[nH]3)nc2)sc2ccccc12` [Compound 804], for which the inhibition at 0.2 µM under setting [3] is 102%.

In the case of `CCCCN(c1sc2ccccc2c1Br)S(=O)(=O)N(C)C` [Compound 265, N-(3-Bromo-benzo[b]thiophen-2-yl)-N-(butyl)-N′,N′-dimethylsulfamide], under setting [1], the negative logarithm of the IC50 (pIC50) was 7.66. Also, under setting [2], the inhibition at 0.2 µM is 90%.

For `O=S(=O)(c1ccccc1)N(Cc1cccnc1)c1cc2ccccc2s1` [Compound 53, N-(Benzo[b]thiophen-2-yl)-N-(pyridin-3-ylmethyl)-benzenesulfonamide], the pIC50 under setting [1] is 6.79. Under setting [4], the inhibition at 0.5 µM was 97%. As to `Cc1c(N(CCCCC(F)(F)F)S(=O)(=O)c2nc3ccccc3[nH]2)sc2ccccc12` [Compound 727, N-(3-Methyl-benzo[b]thiophen-2-yl)-N-(5,5,5,-trifluoro-pentyl)-1H-benzimidazole-2-sulfonamide], under setting [2], the “% Inh @ 0.2 (μM)” value was 16%. As for `COc1ccc(CN(c2sc3ccccc3c2Br)S(=O)(=O)c2ccccc2)cc1Br` [Compound 165, N-(3-Bromo-benzo[b]thiophen-2-yl)-N-(3-bromo-4-methoxy-benzyl)-benzenesulfonamide], under setting [1], the pIC50 was 8.43. Also, the inhibition at 0.5 µM under setting [4] was 98%.

With `COCCN(c1sc2ccccc2c1C)S(=O)(=O)c1ccccc1` [Compound 99, N-(2-Methoxy-ethyl)-N-(3-methyl-benzo[b]thiophen-2-yl)-benzenesulfonamide], the pIC50 under setting [1] is 7.74. Further, the inhibition at 0.2 µM under setting [2] is 99%. Turning to `CCCCN(c1sc2ccccc2c1Br)S(=O)(=O)c1ccccc1` [Compound 231, N-(3-Bromo-benzo[b]thiophen-2-yl)-N-(butyl)-benzenesulfonamide], under setting [1], the pIC50 is 7.54. The inhibition at 0.5 µM under setting [4] turned out to be 95%. In the case of `O=S(=O)(c1cccnc1)N(Cc1ccc(C(F)(F)F)c(F)c1)c1sc2ccccc2c1Br` [Compound 322, N-(3-Bromo-benzo[b]thiophen-2-yl)-N-(3-fluoro-4-trifluoromethyl-benzyl)-pyridin-3-ylsulfonamide], the negative logarithm of the IC50 (pIC50) under setting [1] was 8.00. The inhibition at 0.2 µM under setting [2] was 99%. With `CCCCN(c1sc2ccccc2c1Br)S(=O)(=O)c1ccc(-c2noc(=S)[nH]2)cc1` [Compound 481, N-(3-Bromo-benzo[b]thiophen-2-yl)-N-(butyl)-4-(5-thioxo-4,5-dihydro-[1,2,4]oxadiazol-3-yl)-benzenesulfonamide], under setting [2], the inhibition at 0.2 µM is 69%. For `COC(=O)c1ccc(S(=O)(=O)N(Cc2ccc(OC(F)(F)F)cc2)c2sc3ccccc3c2C2CCC2)cc1` [Compound 754, N-(3-Cyclobutyl-benzo[b]thiophen-2-yl)-N-(4-trifluoromethoxy-benzyl)-4-carbomethoxy-benzenesulfonamide], the negative logarithm of the IC50 (pIC50) under setting [1] was 7.79. In addition, the inhibition at 0.2 µM under setting [2] stood at 82%. On to `Cc1c(N(CCF)S(=O)(=O)c2ccccc2)sc2ccccc12` [Compound 818, N-(2-Fluoro-ethyl)-N-(3-methyl-benzo[b]thiophen-2-yl)-benzenesulfonamide], for which the inhibition at 0.2 µM under setting [3] came to 92%. Under setting [5], the pIC50 was 7.21. On to `COc1ccc(S(=O)(=O)N(Cc2ccc(F)c(F)c2)c2sc3ccccc3c2C)cc1` [Compound 26, N-(3,4-Difluoro-benzyl)-N-(3-methyl-benzo[b]thiophen-2-yl)-4-methoxy-benzenesulfonamide], for which the pIC50 under setting [1] is 7.70. In addition, the inhibition at 0.5 µM under setting [4] stood at 98%. As for `CC(=O)Nc1ccc(S(=O)(=O)N(Cc2ccc(F)c(C(F)(F)F)c2)c2sc3ccccc3c2C)cc1Cl` [Compound 336, N-(3-Methyl-benzo[b]thiophen-2-yl)-N-(4-fluoro-3-trifluoromethyl-benzyl)-(3-chloro-4-acetamide)-benzenesulfonamide], the pIC50 under setting [1] was 7.82. Besides, the “% Inh @ 0.2 (μM)” value under setting [2] is given as 101%. Take `CCN(CC)c1ccc(S(=O)(=O)N(CCC2CC2)c2sc3ccccc3c2C)cc1` [Compound 739, N-(3-Methyl-benzo[b]thiophen-2-yl)-N-(cyclopropyl-ethyl)-4-diethylamino-benzenesulfonamide]: under setting [1], the pIC50 is 7.63. For the same molecule, the inhibition at 0.2 µM under setting [2] stood at 90%. For `O=S(=O)(c1ccc(-c2nnn[nH]2)cc1)N(CCCC(F)(F)F)c1cc2ccccc2s1` [Compound 425, N-(Benzo[b]thiophen-2-yl)-N-(4,4,4-trifluoro-butyl)-4-(1H-tetrazol-5-yl)-benzenesulfonamide], under setting [1], the pIC50 is 7.10. The inhibition at 0.2 µM under setting [2] worked out at 86%. For `CC(C)(C)OCCN(c1sc2ccccc2c1Cl)S(=O)(=O)c1ccccc1` [Compound 81, N-(2-tert-Butoxy-ethyl)-N-(3-chloro-benzo[b]thiophen-2-yl)-benzenesulfonamide], the pIC50 under setting [1] was 7.82. Also, the inhibition at 0.5 µM under setting [4] is 99%. As for `CC(C)c1c(N(CCC2CC2)S(=O)(=O)c2ccc(C(=O)O)cc2)sc2ccccc12` [Compound 567, N-(2-Cyclopropyl-ethyl)-N-(3-isopropyl-benzo[b]thiophen-2-yl)-4-carboxy-benzenesulfonamide], under setting [1], the pIC50 was 7.99. Under setting [2], the inhibition at 0.2 µM is 104%. On to `O=S(=O)(c1ccccc1)N(c1cc2ccccc2s1)C1CCCCC1` [Compound 119, N-(Benzo[b]thiophen-2-yl)-N-(cyclohexyl)-benzenesulfonamide], for which the pIC50 under setting [1] is 6.87. Moreover, under setting [4], the inhibition at 0.5 µM came to 93%. As to `CCS(=O)(=O)N(Cc1ccnc(F)c1)c1sc2ccccc2c1C(C)O` (stereo not drawn) [Compound 835, N-(2-Fluoropyridin-4-ylmethyl)-N-[3-(1-hydroxyethyl)-benzo[b]thiophen-2-yl]-ethanesulfonamide], the inhibition at 0.2 µM under setting [3] worked out at 89%. For the same molecule, the pIC50 under setting [5] is 7.26.

Regarding `CNc1ccc(S(=O)(=O)N(CCC2CC2)c2sc3ccccc3c2Br)cc1` [Compound 693, N-(3-Bromo-benzo[b]thiophen-2-yl)-N-(2-cyclopropyl-ethyl)-4-methylamino-benzenesulfonamide], the pIC50 under setting [1] is 7.60. The inhibition at 0.2 µM under setting [2] came out at 103%. Regarding `O=S1(=O)C(N(CCC2CC2)S(=O)(=O)c2ccccc2)=C(N2CCNCC2)c2ccccc21` [Compound 647, N-(2-Cyclopropyl-ethyl)-N-(1,1-dioxo-3-piperazin-1-yl-1H-1λ^6-benzo[b]thiophen-2-yl)-benzenesulfonamide], under setting [2], the inhibition at 0.2 µM was 21%. As for `O=C1CCCN1CCN(c1sc2ccccc2c1Cl)S(=O)(=O)c1ccccc1` [Compound 82, N-(3-Chloro-benzo[b]thiophen-2-yl)-N-[2-(2-oxo-pyrrolidin-1-yl)-ethyl]-benzenesulfonamide], under setting [1], the pIC50 is 6.50. Moreover, the inhibition at 0.5 µM under setting [4] is 87%. For `CCCS(=O)(=O)N(Cc1ccc(F)c(F)c1)c1cc2ccccc2s1` [Compound 36, N-(Benzo[b]thiophen-2-yl)-N-(3,4-difluoro-benzyl)-propane-1-sulfonamide], in that order: 7.11 and 98%. Consider `Cc1c(N(Cc2ccc(OC(F)(F)F)cc2)S(=O)(=O)c2ccc(-c3nsc(=O)[nH]3)cc2)sc2ccccc12` [Compound 810, N-(3-Methyl-benzo[b]thiophen-2-yl)-N-(4-trifluoromethoxy-benzyl)-4-(5-oxo-4,5-dihydro-[1,2,4]thiadiazol-3-yl)-benzenesulfonamide], for which the inhibition at 0.2 µM under setting [3] is 102%. In addition, under setting [5], the pIC50 was 9.00. With `O=S(=O)(N(Cc1ccc(F)c(C(F)(F)F)c1)c1cc2ccccc2s1)C(F)(F)F` [Compound 663, N-Benzo[b]thiophen-2-yl-N-(4-fluoro-3-trifluoromethyl-benzyl)-C,C,C-trifluoro-methanesulfonamide], the inhibition at 0.2 µM under setting [2] is 17.1%. Consider `O=S(=O)(c1ccccc1)N(Cc1ccc(Cl)cc1)c1cc2ccccc2s1` [Compound 46, N-(Benzo[b]thiophen-2-yl)-N-(4-chloro-benzyl)-benzenesulfonamide], for which the pIC50 under setting [1] is 7.08. Also, the inhibition at 0.5 µM under setting [4] is 99%. Consider `Cc1c(N(Cc2ccc(OC(F)(F)F)cc2)S(=O)(=O)c2cccc3cnccc23)sc2ccccc12` [Compound 28, N-(3-Methyl-benzo[b]thiophen-2-yl)-N-(4-trifluoromethoxy-benzyl)-isoquinoline-5-sulfonamide], for which the pIC50 under setting [1] is 7.49. Also, the inhibition at 0.5 µM under setting [4] stood at 100%.

Turning to `O=S(=O)(Nc1ccc(S(=O)(=O)N(CCC2CC2)c2sc3ccccc3c2Br)cc1)C1CC1` [Compound 719, N-(3-Bromo-benzo[b]thiophen-2-yl)-4-cyclopropanesulfonylamino-N-(2-cyclopropyl-ethyl)-benzenesulfonamide], the pIC50 under setting [1] was 7.64. Under setting [2], the inhibition at 0.2 µM amounted to 100%. For `Cc1c(N(CCC2CC2)S(=O)(=O)CC(F)(F)F)sc2ccccc12` [Compound 670, N-(2-Cyclopropyl-ethyl)-N-(3-methyl-benzo[b]thiophen-2-yl)-2,2,2-trifluoro-ethanesulfonamide], in that order: 7.41 and 99.1%.
